Test results taken from PubChem BioAssay (NCI).
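1) Cells in 96-well plates. 2) Compound, 48 h, 5 concentrations. 3) Linear interpolation between surrounding doses. 4) Unreached endpoint = highest concentration. Here, GI50 denotes the concentration required for 50% inhibition of growth. TGI: total growth inhibition.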

Key:
Assay in all cases: DTP human tumour cell line panel, 48 h
SN12C renal = system: SN12C renal
NCI-H460 lung = system: NCI-H460 lung
U251 CNS = system: U251 CNS
OVCAR-3 ovarian = system: OVCAR-3 ovarian
MALME-3M melanoma = system: MALME-3M melanoma
DU-145 prostate = system: DU-145 prostate
SK-OV-3 ovarian = system: SK-OV-3 ovarian
UACC-257 melanoma = system: UACC-257 melanoma
PC-3 prostate = system: PC-3 prostate
OVCAR-5 ovarian = system: OVCAR-5 ovarian
HT29 colon = system: HT29 colon
HCT-116 colon = system: HCT-116 colon
CCRF-CEM leukemia = system: CCRF-CEM leukemia
SW-620 colon = system: SW-620 colon
SF-295 CNS = system: SF-295 CNS
SF-268 CNS = system: SF-268 CNS
HCT-15 colon = system: HCT-15 colon
SK-MEL-28 melanoma = system: SK-MEL-28 melanoma
UACC-62 melanoma = system: UACC-62 melanoma
CAKI-1 renal = system: CAKI-1 renal
RXF 393 renal = system: RXF 393 renal
HOP-92 NSCLC = system: HOP-92 NSCLC
ACHN renal = system: ACHN renal
LOX IMVI melanoma = system: LOX IMVI melanoma
IGROV1 ovarian = system: IGROV1 ovarian
HS 578T breast = system: HS 578T breast
SK-MEL-5 melanoma = system: SK-MEL-5 melanoma
MDA-MB-231 breast = system: MDA-MB-231 breast
K-562 leukemia = system: K-562 leukemia
MDA-MB-435 = system: MDA-MB-435
SNB-19 CNS = system: SNB-19 CNS
786-0 renal = system: 786-0 renal
HCC-2998 colon = system: HCC-2998 colon
OVCAR-4 ovarian = system: OVCAR-4 ovarian
TK-10 renal = system: TK-10 renal
NCI-H226 lung = system: NCI-H226 lung
SR leukemia = system: SR leukemia
SF-539 CNS = system: SF-539 CNS
COLO 205 colon = system: COLO 205 colon
UO-31 renal = system: UO-31 renal
BT-549 breast = system: BT-549 breast
HL-60(TB) leukemia = system: HL-60(TB) leukemia
MOLT-4 leukemia = system: MOLT-4 leukemia
SNB-75 CNS = system: SNB-75 CNS
HOP-62 NSCLC = system: HOP-62 NSCLC
KM12 colon = system: KM12 colon
A549 NSCLC = system: A549 NSCLC
NCI-H522 lung = system: NCI-H522 lung
T-47D breast = system: T-47D breast
A498 renal = system: A498 renal
RPMI-8226 leukemia = system: RPMI-8226 leukemia
MCF7 breast = system: MCF7 breast
NCI/ADR-RES ovarian = system: NCI/ADR-RES ovarian
M14 melanoma = system: M14 melanoma
OVCAR-8 ovarian = system: OVCAR-8 ovarian
SK-MEL-2 melanoma = system: SK-MEL-2 melanoma
EKVX NSCLC = system: EKVX NSCLC
NCI-H23 lung = system: NCI-H23 lung

For `CC(C)S(=O)(=O)c1ccccc1Nc1nc(Nc2cccc(NC(=O)CN)c2)ncc1Cl`, the GI50 (SN12C renal) was 0.21 µM, the TGI (SN12C renal) was 6.66 µM and the GI50 (NCI-H460 lung) was 0.0306 µM. It also gave a TGI (NCI-H460 lung) of 1.64 µM, a GI50 (U251 CNS) of 0.179 µM and a TGI (U251 CNS) of 2.86 µM. For the same compound, the GI50 (OVCAR-3 ovarian) was 0.158 µM, the TGI (OVCAR-3 ovarian) was 3.75 µM and the GI50 (MALME-3M melanoma) was 1.22 µM. It also gave a TGI (MALME-3M melanoma) of 3.12 µM, a GI50 (DU-145 prostate) of 0.406 µM and a TGI (DU-145 prostate) of 6.51 µM. The GI50 (SK-OV-3 ovarian) was 1.11 µM, the TGI (SK-OV-3 ovarian) was 8.57 µM and the GI50 (UACC-257 melanoma) was 0.997 µM. The TGI (UACC-257 melanoma) was 6.73 µM, the GI50 (PC-3 prostate) was 0.308 µM and the TGI (PC-3 prostate) was 5.9 µM. It also gave a GI50 (OVCAR-5 ovarian) of 0.183 µM, a TGI (OVCAR-5 ovarian) of 9.27 µM and a GI50 (HT29 colon) of 0.183 µM. The TGI (HT29 colon) was 2.83 µM, the GI50 (HCT-116 colon) was 0.0403 µM and the TGI (HCT-116 colon) was 0.696 µM. The GI50 (CCRF-CEM leukemia) was < 0.0355 µM, the TGI (CCRF-CEM leukemia) was 4.5 µM and the GI50 (SW-620 colon) was 0.0394 µM. The TGI (SW-620 colon) was 4.09 µM, the GI50 (SF-295 CNS) was < 0.0225 µM and the TGI (SF-295 CNS) was 8.59 µM. The GI50 (SF-268 CNS) was 0.189 µM, the TGI (SF-268 CNS) was 1.3 µM and the GI50 (HCT-15 colon) was 0.16 µM. For the same compound, the TGI (HCT-15 colon) was 3.72 µM, the GI50 (SK-MEL-28 melanoma) was 0.406 µM and the TGI (SK-MEL-28 melanoma) was 2.25 µM. The GI50 (UACC-62 melanoma) was 0.164 µM, the TGI (UACC-62 melanoma) was 1.83 µM and the GI50 (CAKI-1 renal) was 0.2 µM. The TGI (CAKI-1 renal) was 7.25 µM, the GI50 (RXF 393 renal) was 0.0565 µM and the TGI (RXF 393 renal) was 0.302 µM. For the same compound, the GI50 (HOP-92 NSCLC) was 0.102 µM, the TGI (HOP-92 NSCLC) was 1.55 µM and the GI50 (ACHN renal) was 0.124 µM. The TGI (ACHN renal) was 6.95 µM, the GI50 (LOX IMVI melanoma) was 0.0384 µM and the TGI (LOX IMVI melanoma) was 0.258 µM. For the same compound, the GI50 (IGROV1 ovarian) was 0.263 µM, the TGI (IGROV1 ovarian) was 12.6 µM and the GI50 (HS 578T breast) was 0.161 µM. The TGI (HS 578T breast) was 1.11 µM, the GI50 (SK-MEL-5 melanoma) was 0.136 µM and the TGI (SK-MEL-5 melanoma) was 0.894 µM. It also gave a GI50 (MDA-MB-231 breast) of 0.239 µM, a TGI (MDA-MB-231 breast) of 3.97 µM and a GI50 (K-562 leukemia) of 0.198 µM. It also gave a TGI (K-562 leukemia) of 2.55 µM, a GI50 (MDA-MB-435) of 0.553 µM and a TGI (MDA-MB-435) of 2.16 µM. It also gave a GI50 (SNB-19 CNS) of 0.251 µM, a TGI (SNB-19 CNS) of 10.1 µM and a GI50 (786-0 renal) of 0.235 µM. The TGI (786-0 renal) was 2.57 µM, the GI50 (HCC-2998 colon) was 0.399 µM and the TGI (HCC-2998 colon) was 4.12 µM. It also gave a GI50 (OVCAR-4 ovarian) of 0.336 µM, a TGI (OVCAR-4 ovarian) of 5.05 µM and a GI50 (TK-10 renal) of 0.362 µM. The TGI (TK-10 renal) was 7.86 µM, the GI50 (NCI-H226 lung) was 0.113 µM and the TGI (NCI-H226 lung) was 1.98 µM. It also gave a GI50 (SR leukemia) of 0.0101 µM, a TGI (SR leukemia) of 0.423 µM and a GI50 (SF-539 CNS) of 0.0455 µM. For the same compound, the TGI (SF-539 CNS) was 0.334 µM, the GI50 (COLO 205 colon) was 0.0319 µM and the TGI (COLO 205 colon) was 0.223 µM. For the same compound, the GI50 (UO-31 renal) was 0.176 µM, the TGI (UO-31 renal) was 4.08 µM and the GI50 (BT-549 breast) was 0.149 µM. For the same compound, the TGI (BT-549 breast) was 1 µM, the GI50 (HL-60(TB) leukemia) was 0.103 µM and the TGI (HL-60(TB) leukemia) was 0.55 µM. The GI50 (MOLT-4 leukemia) was 0.231 µM, the TGI (MOLT-4 leukemia) was 2.14 µM and the GI50 (SNB-75 CNS) was 0.0346 µM. For the same compound, the TGI (SNB-75 CNS) was 0.41 µM, the GI50 (HOP-62 NSCLC) was 0.112 µM and the TGI (HOP-62 NSCLC) was 6.13 µM. The GI50 (KM12 colon) was 0.0331 µM, the TGI (KM12 colon) was 2.45 µM and the GI50 (A549 NSCLC) was 0.147 µM. The TGI (A549 NSCLC) was 9.03 µM, the GI50 (NCI-H522 lung) was 1.33 µM and the TGI (NCI-H522 lung) was 4.08 µM. The GI50 (T-47D breast) was 0.586 µM, the TGI (T-47D breast) was 4.68 µM and the GI50 (A498 renal) was < 0.0242 µM. It also gave a TGI (A498 renal) of 0.493 µM, a GI50 (RPMI-8226 leukemia) of 0.254 µM and a TGI (RPMI-8226 leukemia) of 2.41 µM. The GI50 (MCF7 breast) was 0.0177 µM, the TGI (MCF7 breast) was 1.25 µM and the GI50 (NCI/ADR-RES ovarian) was 0.482 µM. The TGI (NCI/ADR-RES ovarian) was 3.6 µM, the GI50 (M14 melanoma) was 0.189 µM and the TGI (M14 melanoma) was 1.49 µM. For the same compound, the GI50 (OVCAR-8 ovarian) was 0.286 µM, the TGI (OVCAR-8 ovarian) was 6.97 µM and the GI50 (SK-MEL-2 melanoma) was 0.347 µM. The TGI (SK-MEL-2 melanoma) was 1.57 µM, the GI50 (EKVX NSCLC) was 1.5 µM and the TGI (EKVX NSCLC) was 10.1 µM. It also gave a GI50 (NCI-H23 lung) of 0.208 µM and a TGI (NCI-H23 lung) of 1.03 µM.
